# Reference: patent publication US11612601B1, “Targeting epidermal growth factor to treat vascular calcification” (THE FLORIDA INTERNATIONAL UNIVERSITY BOARD OF TRUSTEES, priority 2022, dated 2023)
# Tests used:
# [1] = tested on: Primary human coronary artery vascular smooth muscle cells; assay: VSMC intracellular and cytosolic CAV1, EGFR, TNAP (immunoblot, activity assay, confocal); assay type: cell-based; settings: OS + 2.5 μM, 14 days
# Procedure: To assess the activity of intracellular tissue non-specific alkaline phosphatase (TNAP), a colorimetric assay kit (BioVision, K412) was used. VSMCs (n=3) after 14 days and osteoblasts (n=3) after 7 days, were lysed in 120 μL assay buffer. 80 μL of each sample were mixed with 50 μL of 5 mM pNPP solution and incubated for 60 min at 25° C. The colorimetric change resulting from the reaction was detected using a plate reader to measure absorbance at 405 nm. The results were normalized to the total protein for associated samples measured by a BCA protein assay (BioVision, K813).
# VSMCs were treated with control, OS, and OS supplemented with tyrphostin AG1478 (2.5 μM) for 14 days. At the experiment endpoint, using a subcellular protein fraction kit for cultured cells (Thermofisher, 78840), cytosolic fraction was isolated according to the manufacturer's protocol. Briefly, VSMCs were harvested using 0.25% trypsin solution and resuspended in cytoplasmic extraction buffer. After 10 min incubation at 4° C., the samples were centrifuged at 1000×g for 5 min and the supernatants were collected as cytosolic fractions. The protein concentration for aortic tissue and VSMC fractions were quantified using a BCA assay and samples were prepared for protein immunoblotting.
# To quantify the total protein, the membranes were stained using 2% w/v Ponceau stain (Alfa Aesar, AAJ6074409) for 20 min, followed by one wash with 5% acetic acid and milliQ water for 5 min. After imaging, the intensity of each lane was measured in ImageJ for total protein normalization. Membranes were blocked with 5% w/v bovine serum albumin (HyClone, SH30574.01) in TBS-Tween (1×) for 1 hour. The membranes were incubated with primary antibodies of interest, including CAV1 (1:200, Abcam, ab2910), TNAP (1:200, Invitrogen, 702454), EGFR (1:00, EMD Millipore, 06-874), CD63 (1:200, Abeam, ab231975), GAPDH (1:100, Abcam, ab181602), and Annexin V (1:200, proteintech, 11060-1-AP) overnight at 4° C. After three washes with TBS-Tween (1×), the membranes were incubated with secondary antibody (1:1000, Li-Cor) for 1 hour, followed by three washes with TBS-Tween (1×). The protein bands were visualized with Odyssey CLx scanner (Li-Cor), and quantified using Image Studio Lite software (Li-Cor).
# VSMCs were fixed after 14 days of culture using formalin (10%) for 15 min and washed with PBS. A solution of PBS and Triton X (0.1% v/v) permeabilized the plasma membrane for 10 min at room temperature. To avoid non-specific antibody binding, the cells were incubated with a blocking buffer solution, consisting of BSA (1% w/v) and glycine (22.5 mg/mL) in PBS for 30 min at room temperature. Next, the cells were incubated for 2 hours with primary antibody against CAV1 (1:200), and washed three times with PBS. Cells were then incubated with a secondary antibody, Alexa Fluor 594 (1:500, Abeam, ab150080) for 1 hour at room temperature, following by three washes with PBS. The nuclei were stained using DAPI (0.2 mg/mL, Cayman Chemical, 14285). […]
# Osteoblasts (hFOB 1.19) [2] = assay: In vitro calcification of osteoblasts, Alizarin Red S staining; assay type: cell-based, human; settings: OS + 2.5 μM vs OS, 21 days; p=0.86
# Procedure: (§1) Osteoblasts (from human fetus, hFOB 1.19, ATCC, CRL-11372) were cultured and grown in DMEM containing 10% v/v bovine calf serum and 1% v/v penicillin-streptomycin. Osteoblasts (passage 4-6) were harvested using 0.25% trypsin-EDTA solution (Caisson Labs, TRL01), seeded with a density of 5,200 cell.cm^−2, and incubated for 24 hours at 37° C. and 5% CO2 with controlled humidity. The cells were treated in three groups of control, OS, and OS supplemented with tyrphostin AG1478 (2.5 μM) for 21 days and media changed every three days. […] Similar to the VSMC experiments, EV-free media were added to the cultures on days 6, 13, and 20, and collected 24 hours later on days 7, 14, and 21. Collected media were centrifuged at 1,000×g for 5 min to remove cell debris. EVs were isolated using the ultracentrifugation at 100,000×g for 1 hour.
# At the end of experiments (28 and 21 days of treatment on VSMCs and osteoblasts, respectively), media were removed, and the cells were fixed using Formalin (10%, Fisher Chemical, SF100). To visualize in vitro calcification, Alizarin Red S stain (ARS, Ricca, 500-32) was added to the wells and incubated for 30 min at room temperature. […]
# To quantify the in vitro calcification, ARS stain was extracted using acetic acid (1.67 M, Fisher Chemical, A38S) on a shaker. […] Sample absorbance of 405 nm was measured using a multi-mode reader (BioTek, Synergy HTX).
# [3] = tested on: Primary human coronary artery vascular smooth muscle cells; assay: EVs isolated from VSMC cultures: protein immunoblot and TNAP activity; assay type: cell-based
# Procedure: To assess the role of EGFR inhibition, tyrphostin AG1478 (Millipore Sigma, T4182) was dissolved in vehicle (DMSO:Methanol, 1:1) and added to OS media to a final concentration of 2.5 μM. An equal volume of vehicle was added to the control and OS groups. It shown that 28 days in OS culture media led to robust calcification by VSMCs; therefore, all cultures (n=3, independent donors, male and female) were treated for 28 days and media were replaced every three days. On days 6, 13, 20, and 27 the media were replaced by an extracellular-vesicle-free (EV-free) media (ultracentrifuged for 15 hours at 100,000×g at 4° C. to remove background EVs common in the serum). After 24 hours, conditioned media were collected on days 7, 14, 21, and 28. Collected media were centrifuged at 1,000×g for 5 min to remove cell debris. EV isolation was performed using ultracentrifugation (Beckman Coulter, Optima MAX-TL) at 100,000×g for 1 hour.
# For EV TNAP activity measurement, after ultracentrifugation at 100,000×g for 1 hour, the pellets were re-suspended in 120 μL buffer assay. The assessment was performed using the same assay protocol described for intracellular TNAP activity and the results were normalized to the total protein for each sample. For mice serum TNAP activity, the samples were diluted 1:20 and assessment was performed according to the manufacturer's protocol.
# VSMCs, osteoblasts, isolated EVs (either from cells or mouse aortas), and matrix vesicles (from osteoblasts) were lysed in RIPA lysis and extraction buffer supplemented with protease inhibitor. After adding Laemmli SDS-sample buffer (1:4 v/v, Boston BioProducts, BP-110R) to each lysate, the samples were denatured at 100° C. for 10 min, loaded into 7.5-12% 1-mm SDS-PAGE gel (15 to 20 μg protein per lane), and run at 170 V. The proteins were then transferred to Trans-Blot turbo nitrocellulose membranes (BIO-RAD, 1704158) at 25 V for 7 min.
# To quantify the total protein, the membranes were stained using 2% w/v Ponceau stain (Alfa Aesar, AAJ6074409) for 20 min, followed by one wash with 5% acetic acid and milliQ water for 5 min. After imaging, the intensity of each lane was measured in ImageJ for total protein normalization. Membranes were blocked with 5% w/v bovine serum albumin (HyClone, SH30574.01) in TBS-Tween (1×) for 1 hour. The membranes were incubated with primary antibodies of interest, including CAV1 (1:200, Abcam, ab2910), TNAP (1:200, Invitrogen, 702454), EGFR ([…], EMD Millipore, 06-874), CD63 (1:200, Abeam, ab231975), GAPDH (1:100, Abcam, ab181602), and Annexin V (1:200, proteintech, 11060-1-AP) overnight at 4° C. After three washes with TBS-Tween (1×), the membranes were incubated with secondary antibody (1:1000, Li-Cor) for 1 hour, followed by three washes with TBS-Tween (1×). The protein bands were visualized with Odyssey CLx scanner (Li-Cor), and quantified using Image Studio Lite software (Li-Cor).
# CKD mice = assay: EVs isolated from mouse aortas: CAV1 immunoblot and TNAP activity; assay type: in vivo; settings: CKD mice treated vs CKD
# Procedure: Immediately after scanning, the tissue was incubated in a digestive solution of sucrose (0.25 M, Sigma, S7903), NaCl (0.12 M, Fisher Chemical, BP358), KCl (0.01 M, Fisher Chemical, P217), Tris hydrochloride (0.02 M, Fisher Chemical, BP153), and collagenase (600 U/mL, Worthington Biochemical, LS004174) for 2 hours at 37° C. The solution was then centrifuged at 1,000×g for 15 min to remove cell debris and at 33,000×g for 30 min to remove microvesicles. Finally, the supernatants were ultracentrifuged (Beckman Coulter, Optima MAX-TL) at 100,000×g for 1 hour to isolate the EVs of interest. The pellet was suspended in RIPA lysis and extraction buffer (G Biosciences, 786-489) supplemented with pierce protease inhibitor (Thermo Scientific, A32963). To yield sufficient protein concentration for analysis, EVs isolated from 2 to 3 aortas were pooled.
# (§2) For EV TNAP activity measurement, after ultracentrifugation at 100,000×g for 1 hour, the pellets were re-suspended in 120 μL buffer assay. […]
# (§3) To quantify the total protein, the membranes were stained using 2% w/v Ponceau stain (Alfa Aesar, AAJ6074409) for 20 min, followed by one wash with 5% acetic acid and milliQ water for 5 min. After imaging, the intensity of each lane was measured in ImageJ for total protein normalization. […] The protein bands were visualized with Odyssey CLx scanner (Li-Cor), and quantified using Image Studio Lite software (Li-Cor).
# Osteoblasts (hFOB 1.19) [4] = assay: Matrix vesicles from osteoblast cultures: CAV1 and TNAP activity; assay type: cell-based, human; settings: OS + 2.5 μM
# Procedure: as §1, §2, §3
structure (smiles),measurement,setting,value
"COc1cc2ncnc(Nc3cccc(Cl)c3)c2cc1OC [AG1478, tyrphostin AG1478]",intracellular TNAP activity in VSMCs,[1]; compared to control,elevated
same,cytosolic TNAP in VSMCs,[1]; compared to control (p=0.003) and OS (p=0.005),elevated
same,cytosolic CAV1 in VSMCs,[1]; compared to control (p=0.02) and OS (p=0.04),elevated
same,total level of intracellular CAV1 in VSMCs,[1]; compared to control group,significantly increased
same,intracellular EGFR protein in VSMCs,[1]; p=0.84,prevented the OS-induced increase
same,quantification of the in vitro calcification of osteoblasts (Alizarin red),Osteoblasts (hFOB 1.19) [2],no significant difference
same,level of CD63 on EVs from VSMCs,"[3]; 28 days of culture, across in vitro groups, p=0.9",preserved
same,level of Annexin V on EVs from VSMCs,"[3]; OS + 2.5 μM, day 28",reduced levels
same,level of EGFR on EVs from VSMCs,"[3]; OS + 2.5 μM, day 28",reduced levels
same,EV TNAP activity (VSMC cultures),"[3]; OS + 2.5 μM, days 14, 21, 28",reduced
same,release of CAV1-positive EVs by VSMCs,"[3]; OS + 2.5 μM, days 14, 21, 28",reduced
same,CD63 protein within EVs from vascular SMCs,"[3]; pro-calcific media + 2.5 μM, 14 days, vs control and pro-calcific media",no differences
same,CAV1 protein on EVs isolated from aortas,CKD mice; p<0.0001,significantly lower
same,TNAP activity of EVs isolated from aortas,CKD mice; p=0.003,significantly lower
same,CAV1 protein on matrix vesicles released by osteoblasts,"Osteoblasts (hFOB 1.19) [4]; compared to control, days 14 and 21",lower levels
same,TNAP activity of matrix vesicles released by osteoblasts,"Osteoblasts (hFOB 1.19) [4]; days 7, 14, 21",significantly increased
